Results: ChEMBL document CHEMBL1126005 (Bioorg Med Chem Lett, 1991)

What was measured:
Adenosine A2 receptor = Adenosine A2 receptor (Rattus norvegicus, UniProt P29276+P30543)
Adenosine receptor A1 = target: T1, Adenosine receptor A1 (Rattus norvegicus, UniProt P25099); test: biochemical
T1 sequence (P25099 whole entry): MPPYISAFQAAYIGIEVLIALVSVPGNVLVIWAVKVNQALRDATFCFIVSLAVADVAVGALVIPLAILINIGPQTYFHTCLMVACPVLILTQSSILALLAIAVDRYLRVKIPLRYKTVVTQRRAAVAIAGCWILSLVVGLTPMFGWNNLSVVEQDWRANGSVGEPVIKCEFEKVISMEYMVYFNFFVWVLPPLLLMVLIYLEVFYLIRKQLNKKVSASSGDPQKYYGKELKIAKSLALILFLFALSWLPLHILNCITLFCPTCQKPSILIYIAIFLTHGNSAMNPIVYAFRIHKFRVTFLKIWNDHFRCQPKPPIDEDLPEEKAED

| Structure (SMILES) | Ki (Adenosine A2 receptor) [nM] | Ki (Adenosine receptor A1) [nM] |
| --- | --- | --- |
| OC[C@H]1OC(n2cnc3c(NC4CCCC4)nc(O)nc32)[C@H](O)[C@@H]1O (some centres undefined) | 7500 | 19 |
| OC[C@H]1OC(n2cnc3c(NC4CCC4)nc(O)nc32)[C@H](O)[C@@H]1O (some centres undefined) | 15000 | 55 |
| OC[C@H]1OC(n2cnc3c(NC4CCCCCC4)nc(O)nc32)[C@H](O)[C@@H]1O (some centres undefined) | 6000 | 70 |
| OC[C@H]1OC(n2cnc3c(NC4CC5CCC4C5)nc(O)nc32)[C@H](O)[C@@H]1O (some centres undefined) | 80000 | 35 |
| OC[C@H]1OC(n2cnc3c(NC4CCCC4)nc(I)nc32)[C@H](O)[C@@H]1O (some centres undefined) | 40000 | 20 |
| OC[C@H]1OC(n2cnc3c(NC4CCCCC4)nc(O)nc32)[C@H](O)[C@@H]1O (some centres undefined) | 15000 | 40 |
| OC[C@H]1OC(n2cnc3c(NC4CCC5CCCCC5C4)nc(O)nc32)[C@H](O)[C@@H]1O (some centres undefined) | 140000 | 30000 |
